Laboratory results reported in US9943500B2, “Methods of treating topical microbial infections” (LUODA PHARMA PTY LIMITED, priority 2013, dated 2018).
In brackets after ≈: the same amount, converted by molar mass. Read-outs that look alike come from different tables or passages of the source.

Experiments:
[1] = tested on: methicillin-sensitive and methicillin-resistant strains of Staphylococcus; assay: Minimum bactericidal concentration determination, Staphylococcus isolates (Example 1); details: for bactericidal activity (MBC testing): lower concentrations; for strain type for which bactericidal activity was more consistent: methicillin-sensitive versus methicillin-resistant strains
Procedure: Following determination of the MIC using the 96 well MIC plate, a variation of the drop plate method was used to determine minimum bactericidal concentration (MBC) for each of the test compounds. These were analysed using samples taken from the MIC plate following incubation. […] Each concentration was pipetted in duplicate with duplicates being pipetted on an inner ring of drops. The plates were incubated at 37° C. overnight and assessed the following day for growth. The MBC was defined as the concentration at which 99.9% of colonies were eradicated, which was visually assessed by a lack of growth on the agar where the drop was placed.

[2] = tested on: methicillin sensitive and methicillin-resistant staphylococci; assay: Minimum inhibitory concentration assay, 42 Staphylococcus isolates (Example 1); format: cell-based
Procedure: Forty-two isolates of Staphylococcus of varying species and strain type were collected from isolate collections. Biochemical testing including coagulase, latex agglutination testing for protein A, Vogues-Proskauer tests and resistance to polymyxin B were used to identify the species of Staphylococcus. All isolates were also screened for resistance to various antimicrobials commonly used for the treatment of skin infections. This was performed using the disk diffusion method and resistance standards as outlined by the CLSI. The following antimicrobials were used: amoxicillin-clavulanic acid (30 μg), cephalothin (30 μg), clindamycin (2 μg), enrofloxacin (5 μg), erythromycin (15 μg), gentamicin (10 μg), imipenem (10 μg), oxacillin (1 μg), penicillin G (10 units), tetracycline (30 μg), 1:19 trimethoprim-sulfamethoxazole (25 μg) and vancomycin (30 μg).
Minimum inhibitory concentration tests were performed according to CLSI Standards (CLSI 2012). 90 μL of one of the test compound solutions, or ampicillin, was added to the end column of a 96 well plate that contained 90 μL of CAMHB in each well. The solutions were then serially diluted across the row, leaving 2 columns for positive and negative controls (FIG. 2). A bacterial suspension was prepared by adding fresh colonies obtained from an overnight culture on Sheep Blood Agar (SBA) to a 9.1 g/L saline solution. This suspension was adjusted to a concentration of between 4×10^8 and 5×10^8 CFU/mL. […] 1 mL of this suspension was added to 9 mL of saline before being added to all wells, excluding the negative control wells, in 10 μL volumes giving a final concentration of between 4×10^5 and 5×10^5 CFU/mL in each well. The tests were then incubated for 24 hours at 37° C. and then assessed both visually and using OD readings from a microplate reader at a wavelength of 600 nm. These tests were performed in duplicate but repeated if discrepancies were observed.
The minimum inhibitory concentration (MIC) was determined to be the lowest concentration of antibiotic that prevented growth of bacteria both visually and using OD readings. Direct statistical comparisons between the test compounds and ampicillin could not be performed in light of confidential information restrictions, such as restrictions on disclosure of information relating to the compound structure, such as molecular weight. Instead, MIC values were collated and used to determine the lowest concentration of each compound that was effective against 50% and 90% of isolates, referred to as the MIC50 and MIC90 respectively. These values as well as the range of MIC values were then used for direct comparisons between test compounds and for general comparisons with ampicillin.

MRSA 9 = assay: Macrodilution time-kill assay (viable counts); details: 24 hours
Procedure: (§1) Due to the detection limit of the OD measurements, the time-kill assays were also performed in macrodilution. In 15 mL tubes, 9 mL volumes of the test compounds in CAMHB were prepared at one, four and eight times the MIC concentration and 9 mL volumes of ampicillin were prepared in CAMHB at one and four times the MIC. 1 mL of a 4 to 5×10^6 bacterial suspension (as prepared for MIC testing) was added to each of the tubes as well as a growth control tube containing only 9 mL of CAMHB. These tubes were incubated at 37° C. in an orbital shaker rotating at 100 rpm for 24 hours. At 0, 1, 4, 8, 12 and 24 hours after addition of the bacteria, 100 μL samples were removed from each tube and serial diluted in 9.1 g/L saline solution. The dilutions were then plated in duplicate onto plate count agar and incubated for 24 hours at 37° C. After incubation, viable counts were obtained from the number of colonies visible on the agar and these were used to calculate the number of CFU/mL at each time point. For the macrodilution time-kill analysis, only the ATCC 49775 reference strain and MRSA 9 were assessed in order to further investigate the antibacterial activity against methicillin-resistant strains. These macrodilution time-kill assays were independently repeated and bactericidal activity was defined as a ≥3 log decrease in the number of CFU/mL.

[3] = tested on: ATCC 49775 reference strain; assay: Macrodilution time-kill assay (viable counts); details: 24 hours
Procedure: as §1

[4] = tested on: ATCC 49775 reference strain; assay: Microdilution time-kill assay (optical density); details: 48 hour period; one, four and eight times the MIC
Procedure: Time-kill assays were performed according to the M26-A guidelines of the CLSI, with modifications. The test compounds and ampicillin were serial diluted in CAMHB across the rows of a 96 well plate and a bacterial suspension was prepared and added in the same manner as the MIC testing. The 96 well plates were then incubated at 37° C. for 48 hours being removed at specific time points and OD for the positive control wells as well as one, four and eight times the MIC of the compound specific to the strain being tested were assessed using a spectrophotometer at a wavelength of 600 nm. The time points assessed were 0, 1, 2, 4, 8, 12, 24 and 48 hours after the addition of the bacterial suspension to the wells. Each test compound was tested in triplicate while ampicillin was tested in duplicate and this test was independently repeated. […] One strain from each of the categories of Staphylococcus in the isolate collection (methicillin-sensitive, methicillin resistant and coagulase negative) were selected as well as the ATCC reference strain for comparison. These strains were strains MSS 1, MSS 11, MRSA 9 and the ATCC 49775 reference strain.

[5] = tested on: 51 Australian bovine mastitis isolates, primarily S. aureus, S. agalactiae and S. uberis; assay: Minimum inhibitory concentration assay, bovine mastitis isolates (Example 3); format: cell-based; details: all 51 isolates
From the text: Fifty-one dairy bovine mastitis isolates, encompassing a variety of bacterial species, were isolated from milk samples collected from dairy farms in rural South Australia by the University of Adelaide Ambulatory Clinic. Cellular morphology observed from Gram stains and catalase testing was used to differentiate Staphylococcus, Streptococcus and Corynebacterium species from Gram-negative species. Further biochemical testing including coagulase, Lancefield grouping, esculin hydrolysis and CAMP tests were used to identify the isolates to species level. Where biochemical test results were not definitive in identifying species, amplification and sequencing of the 16S ribosomal RNA gene was used to confirm the identity of the isolates.
Minimum inhibitory concentration tests were performed in the manner outlined by the CLSI (CLSI 2012). Test compounds were dispensed into a 96-well microtitre tray containing 90 μl of CAMHB in 90 μl volumes and serial diluted to obtain a concentration gradient ranging from 128 μg/ml to 0.25 μg/ml (see FIG. 24). For Streptococcus species, CAMHB was replaced with a CAMHB supplement with 4% lysed-sheep blood (4% LSB:CAMHB). 4% LSB:CAMHB was prepared by mixing 5 ml sheep blood to 5 ml milliQ water, and repeated freezing at −20° C. and thawing, followed by centrifuged for 20 min at 7000 rpm. 7 ml of the supernatant was removed and added to 93 mL of CAMB.
Bacterial suspensions were prepared by emulsifying fresh colonies obtained from an overnight culture on Sheep Blood Agar (SBA) in 4 mls of 9.1 g/l physiological saline to an optical density read at 600 nm (OD600 nm) between 1.00 and 1.20. Standardised bacterial suspensions were diluted 1:10 in physiological saline and dispensed into all wells, excluding the negative control wells, in 10 μL volumes giving a final concentration of between 4×10^5 and 5×10^5 CFU/mL in each well. 96-well microtitre trays were incubated for 24 hours at 37° C. in 5% CO2 and then assessed both visually and using OD readings from a microplate reader at a wavelength of 600 nm. These tests were performed in duplicate and repeated if discrepancies in MIC values were observed between replicates.
The minimum inhibitory concentration (MIC) was determined to be the lowest concentration of antibiotic that prevented growth of bacteria both visually and using OD readings. MIC values were collated and used to determine the lowest concentration of each compound effective against 50% and 90% of isolates, known as the MIC50 and MIC90 respectively. These values as well as the range of MIC values were then used for direct comparisons between test compounds and for general comparisons with ampicillin.

[6] = cited from earlier work
[7] = dogs; cited from earlier work

Row | Compound | bactericidal activity (MBC testing) [1] | strain type for which bactericidal activity was more consistent [1] | MIC50 and MIC90 values compared with ampicillin [2] | MIC90 ([5]; read-out: MIC90) [µg/mL] | other results
1 | CO[C@@H]1[C@@H](OC)[C@H](C)[C@@](O)(CC(=O)O)O[C@H]1[C@H](C)[C@H]1O[C@@]2(CC[C@@](C)([C@H]3CC[C@@](C)([C@@H]4O[C@@H]([C@H]5O[C@](C)(O)[C@H](C)C[C@@H]5C)C[C@@H]4O[C@@H]4C[C@H](OC)[C@@H](OC)[C@H](C)O4)O3)O2)C[C@H](O)[C@H]1C [LP 6315, Maduramicin] | some bactericidal activity in lower concentrations | more consistently for methicillin-sensitive strains | considerably lower than ampicillin | 4 (≈ 4.36 µM) | MBC50 rank among test compounds ([1]; methicillin-resistant isolates): lowest MBC50 values; decrease in colonies (MRSA 9; four times the MIC): > 3 log10; bactericidal or bacteriostatic (time-kill) ([3]; most concentrations, ATCC 49775 and MRSA 9): bacteriostatic; growth (optical density) compared to growth control [4]: prevented the growth
2 | CC[C@@H](C(=O)[C@@H](C)[C@@H](O)[C@H](C)[C@@H]1O[C@@H]([C@@H](CC)C(=O)O)CC[C@@H]1C)[C@H]1O[C@]2(C=C[C@@H](O)[C@]3(CC[C@@](C)([C@H]4CC[C@](O)(CC)[C@H](C)O4)O3)O2)[C@H](C)C[C@@H]1C [LP 1088, Salinomycin] | some bactericidal activity in lower concentrations | more consistently for methicillin-sensitive strains | considerably lower than ampicillin | 2 (≈ 2.66 µM) | toxicity after accidental exposure ([6]; accidental inhalation and swallowing of about 1 mg/kg, human): severe acute and chronic salinomycin toxicity; acceptable daily intake (ADI) ([6]; humans, European Food Safety Authority risk assessment): 5 µg/kg; daily intake leading to neurotoxic effects (myelin loss, axonal degeneration) [7]: more than 500 μg/kg
3 | CC[C@@]1([C@@H]2O[C@@H]([C@H]3O[C@@](O)(CO)[C@H](C)C[C@@H]3C)C[C@@H]2C)CC[C@H]([C@]2(C)CC[C@]3(C[C@H](O)[C@@H](C)[C@@H]([C@@H](C)[C@@H](OC)[C@H](C)C(=O)O)O3)O2)O1 [LP 9666, Monensin] |  |  | considerably lower than ampicillin | 128 (≈ 191 µM) | 
4 | Narasin [LP 4525] | some bactericidal activity in lower concentrations | more consistently for methicillin-sensitive strains | considerably lower than ampicillin |  | 
5 | CC1(C)S[C@@H]2[C@H](NC(=O)[C@H](N)c3ccccc3)C(=O)N2[C@H]1C(=O)O [ampicillin] |  |  |  |  | decrease in the number of viable bacteria (MRSA 9; all concentrations tested): > 3 log10; decrease in the number of viable bacteria ([3]; all concentrations tested): > 3 log10
6 | CC[C@@H](C(=O)O)[C@@H]1O[C@@H]([C@@H](C)[C@H](O)[C@H](C)C(=O)[C@H](CC)[C@H]2O[C@]3(C=C[C@@H](O)[C@]4(CC[C@@](C)([C@H]5CC[C@](O)(CC)[C@H](C)O5)O4)O3)[C@H](C)C[C@@H]2C)[C@@H](C)C[C@@H]1C [LP 4525, Narasin] |  |  |  |  | MIC50 [5]: 0.25 µg/mL (≈ 0.327 µM); MIC90 [5]: 1 µg/mL (≈ 1.31 µM)
